Paper PMC8467340, “Fine Tuning of Cholinesterase and Glutathione-S-Transferase Activities by Organoruthenium(II) Complexes” (Biomedicines, 2021)
Like-named read-outs stand apart in the source and are kept apart here.

Assays:
[1] = target: T1, electric eel AChE (eeAChE) (Electrophorus electricus, UniProt O42275); conditions: previously reported; read-out: Enzyme Inhibition eeAChE IC50; cited from earlier work
T1 construct: purchased Sigma-Aldrich

[2] = target: T2, horse serum BChE (hsBChE) (Equus caballus, UniProt P81908); conditions: previously reported; read-out: Enzyme Inhibition hsBChE IC50; cited from earlier work
T2 construct: horse serum BChE (hsBChE); purchased Sigma-Aldrich; host or cells: horse serum
T2 sequence (P81908 whole entry): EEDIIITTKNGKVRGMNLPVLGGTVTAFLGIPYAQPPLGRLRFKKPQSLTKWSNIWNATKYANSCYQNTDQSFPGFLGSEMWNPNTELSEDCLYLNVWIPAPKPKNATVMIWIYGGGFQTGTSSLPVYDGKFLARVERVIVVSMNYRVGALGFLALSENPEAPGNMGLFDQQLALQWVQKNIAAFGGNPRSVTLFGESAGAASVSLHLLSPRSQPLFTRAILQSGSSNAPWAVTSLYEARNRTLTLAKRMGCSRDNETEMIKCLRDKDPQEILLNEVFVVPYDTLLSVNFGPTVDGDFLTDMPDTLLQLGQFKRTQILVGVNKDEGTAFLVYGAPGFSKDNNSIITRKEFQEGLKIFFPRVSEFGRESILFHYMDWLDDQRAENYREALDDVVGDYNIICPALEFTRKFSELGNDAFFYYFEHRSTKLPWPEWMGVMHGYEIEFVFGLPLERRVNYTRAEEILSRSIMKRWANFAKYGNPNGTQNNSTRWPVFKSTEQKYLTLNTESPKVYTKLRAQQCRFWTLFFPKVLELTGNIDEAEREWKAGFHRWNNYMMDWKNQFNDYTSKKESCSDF

horse liver GST (hlGST) [3] = conditions: previously reported, cited from earlier work; for IC50: read-out: Enzyme Inhibition hlGST IC50
[4] = target: T3, human placenta GST (hGST) (Homo sapiens, UniProt P09211); conditions: previously reported; read-out: Enzyme Inhibition hGST IC50; cited from earlier work
T3 construct: human placenta GST (hGST); purchased Sigma-Aldrich; host or cells: human placenta
T3 sequence (P09211 2-210 limits assumed): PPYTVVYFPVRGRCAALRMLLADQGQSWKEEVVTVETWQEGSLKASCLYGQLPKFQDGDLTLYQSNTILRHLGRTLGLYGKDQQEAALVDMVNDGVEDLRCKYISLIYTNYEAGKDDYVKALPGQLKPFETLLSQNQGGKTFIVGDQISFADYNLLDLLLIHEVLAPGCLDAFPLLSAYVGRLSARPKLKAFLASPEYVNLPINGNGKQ

[5] = target: T1, electric eel AChE (eeAChE); assay: Cholinesterase inhibition assay (modified Ellman method), eeAChE; format: biochemical; conditions: for IC50: mean ± SEM of three independent measurements, / = No activity, read-out: Enzyme Inhibition eeAChE IC50; for type of inhibition of eeAChE: Dixon plots
Experimental: (§1) The activities of the ChEs were determined using a modification of the Ellman method adapted for microtiter plates, as described in [47]. Stock solutions of complexes 4, 5, 6, 7, 8 and 10, as well as of ligands L2 and L3 (1 mg/mL) were prepared in 100% MeOH, whereas stock solutions of complexes 2 and 3 (1 mg/mL) were prepared in 5% DMSO in deionised water. Positive control (1 mg/mL neostigmine bromide; Sigma-Aldrich, St. Louis, MO, USA) was also prepared in 100% MeOH. The stock solutions of the potential inhibitors and the positive and negative controls were added to the wells, and progressively diluted in 100 mM potassium phosphate buffer (pH 7.4) to the final volume of 50 μL. Then, 100 μL acetylthiocholine chloride (1 mM) and 5,5′-dithiobis-2-nitrobenzoic acid (0.5 mM) in 100 mM potassium phosphate buffer (pH 7.4) were added into the microtiter plate wells. Three ChEs were used as the enzyme sources: electric eel AChE (eeAChE); human recombinant AChE (hrAChE), and horse serum BChE (hsBChE) (all Sigma-Aldrich, St. Louis, MO, USA). These were dissolved in the same buffer to the final concentration of 0.0075 U/mL. Finally, 50 μL of each ChE solution was added into the microtiter plate wells to start the reaction, which was followed spectrophotometrically at 405 nm at 25 °C over 5 min using a kinetic microplate reader (Dynex Technologies Inc., Chantilly, VA, USA). The blank reactions without the inhibitors were run with the appropriate dilutions of the solvents in which the tested compounds were initially diluted (100% MeOH or 5% aqueous DMSO), and the readings were corrected according to the appropriate blanks. Each measurement was repeated at least three times. […] The data were analysed using the OriginPro software (OriginPro 2020, OriginLab Corporation, Northampton, MA, USA).

[6] = target: T4, human recombinant AChE (hrAChE) (Homo sapiens, UniProt P22303); assay: Cholinesterase inhibition assay (modified Ellman method), hrAChE; format: biochemical; conditions: for IC50: mean ± SEM of three independent measurements, / = No activity, read-out: Enzyme Inhibition hrAChE IC50; for type of inhibition of hrAChE: Dixon plots
T4 construct: purchased Sigma-Aldrich
T4 sequence (P22303 32-614): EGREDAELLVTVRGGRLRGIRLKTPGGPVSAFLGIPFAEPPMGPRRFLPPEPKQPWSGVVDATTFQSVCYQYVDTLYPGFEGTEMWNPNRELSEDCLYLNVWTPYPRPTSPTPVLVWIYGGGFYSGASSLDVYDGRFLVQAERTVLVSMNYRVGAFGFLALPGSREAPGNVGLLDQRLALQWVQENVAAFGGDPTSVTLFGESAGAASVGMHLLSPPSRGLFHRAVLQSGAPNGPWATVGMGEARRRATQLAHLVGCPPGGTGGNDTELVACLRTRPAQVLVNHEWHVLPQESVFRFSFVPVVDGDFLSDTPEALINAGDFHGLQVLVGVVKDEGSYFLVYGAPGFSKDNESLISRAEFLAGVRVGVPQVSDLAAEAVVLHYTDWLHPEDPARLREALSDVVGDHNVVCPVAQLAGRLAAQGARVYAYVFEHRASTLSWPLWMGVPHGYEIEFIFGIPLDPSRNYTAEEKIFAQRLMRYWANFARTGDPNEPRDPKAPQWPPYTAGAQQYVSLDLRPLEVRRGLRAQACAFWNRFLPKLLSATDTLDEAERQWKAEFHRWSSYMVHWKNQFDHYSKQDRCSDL
Experimental: as §1

[7] = target: T2, horse serum BChE (hsBChE); assay: Cholinesterase inhibition assay (modified Ellman method), hsBChE; format: biochemical; conditions: for type of inhibition of hsBChE: Dixon plots; for IC50: mean ± SEM of three independent measurements, / = No activity, read-out: Enzyme Inhibition hsBChE IC50
Experimental: as §1

horse liver GST (hlGST) [8] = assay: Glutathione S-transferase inhibition assay (Habig method), hlGST; format: biochemical; conditions: for IC50: mean ± SEM of three independent measurements, / = No activity, read-out: Enzyme Inhibition hlGST IC50; for type of inhibition of hlGST: Dixon plots; for Ki: determined for compounds with IC50 < 33 μM, substrate 200, 400, 800 μM, read-out: Enzyme Inhibition hlGST Ki
Experimental: (§2) The activities of the GSTs were determined according to the method described by Habig et al. (1974) using a cell imaging multi-mode reader (Cytation 3; BioTek, Winooski, VT, USA). The stock solutions of inhibitors were prepared as described for the ChE inhibition assays. Then the stock solutions of the potential inhibitors and negative controls were added to the wells, and progressively diluted in 100 mM sodium phosphate buffer (pH 6.5) to the final volume of 50 μL. 1-Chloro-2,4-dinitrobenzene (Sigma-Aldrich, St. Louis, MO, USA) was dissolved in ethanol to 50 mM, and then diluted with 100 mM sodium phosphate buffer (pH 6.5) to a final concentration of 4 mM. This solution (50 μL) and 2 mM reduced glutathione (100 μL) in the same buffer were added into the microtiter plate wells. Two GSTs were used as the enzyme sources: horse liver GST (hlGST) and human placenta GST (hGST) (Sigma-Aldrich, St. Louis, MO, USA). These were dissolved in 100 mM sodium phosphate buffer (pH 6.5), and 50 μL of these enzyme solutions were added into the wells to start the reaction. The final enzyme concentration was 0.044 U/mL. The blank reactions without the inhibitors were run with the appropriate dilutions of the solvents in which the tested compounds were initially diluted (100% MeOH or 5% aqueous DMSO), and the readings were corrected according to the appropriate blanks. The reactions were followed spectrophotometrically at 340 nm at 25 °C over 4 min. Each measurement was repeated at least three times. […] The data were analysed using the OriginPro software (OriginPro 2020, OriginLab Corporation, Northampton, MA, USA).

[9] = target: T3, human placenta GST (hGST); assay: Glutathione S-transferase inhibition assay (Habig method), hGST; format: biochemical; conditions: for IC50: mean ± SEM of three independent measurements, / = No activity, read-out: Enzyme Inhibition hGST IC50; for type of inhibition of hGST: Dixon plots; for Ki: determined for compounds with IC50 < 33 μM, substrate 200, 400, 800 μM, read-out: Enzyme Inhibition hGST Ki
Experimental: as §2

[10] = target: T4, human recombinant AChE (hrAChE); conditions: previously reported; read-out: Enzyme Inhibition hrAChE IC50; cited from earlier work

T1 sequence (O42275 24-633): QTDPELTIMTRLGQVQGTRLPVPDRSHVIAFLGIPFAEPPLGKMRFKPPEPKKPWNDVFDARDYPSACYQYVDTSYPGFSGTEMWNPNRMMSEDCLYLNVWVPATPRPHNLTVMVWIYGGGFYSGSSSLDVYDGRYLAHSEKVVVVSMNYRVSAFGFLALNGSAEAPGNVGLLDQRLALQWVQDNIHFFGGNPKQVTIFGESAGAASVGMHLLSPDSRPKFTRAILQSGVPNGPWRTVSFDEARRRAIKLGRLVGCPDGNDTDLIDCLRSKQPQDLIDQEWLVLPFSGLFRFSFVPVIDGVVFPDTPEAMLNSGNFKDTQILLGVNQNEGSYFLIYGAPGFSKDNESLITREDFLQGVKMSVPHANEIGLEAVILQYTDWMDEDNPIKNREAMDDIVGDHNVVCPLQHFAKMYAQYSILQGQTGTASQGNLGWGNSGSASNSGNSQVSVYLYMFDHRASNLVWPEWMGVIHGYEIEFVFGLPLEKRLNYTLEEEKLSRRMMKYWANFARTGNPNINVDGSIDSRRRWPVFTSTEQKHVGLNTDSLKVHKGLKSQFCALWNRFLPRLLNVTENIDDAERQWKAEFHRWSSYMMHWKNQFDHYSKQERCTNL

1-hydroxypyridine-2(1H)-thione [Complex L1]
IC50 [1]: > 100 µM
IC50 [2]: > 100 µM
IC50 (horse liver GST (hlGST) [3]): > 100 µM
IC50 [4]: > 100 µM

Cc1ccc(C(C)C)cc1.FC(F)(F)C1=[O+][Ru-]([P+]23CN4CN(CN(C4)C2)C3)[O]C(c2ccccc2Br)=C1.F[P-](F)(F)(F)(F)F [Complex 7, [RuCym(L2)pta]PF6]
IC50 [5]: > 100 µM
IC50 [6]: > 100 µM
type of inhibition of hsBChE [7]: reversible and competitive
Ki ([7]; determined for compounds with IC50 < 33 μM, substrate 0.125, 0.25, 0.5 mM, read-out: Enzyme Inhibition hsBChE Ki): 9.26 µM
IC50 [7]: 19.2 ± 1.5 µM
IC50 (horse liver GST (hlGST) [8]): > 100 µM
IC50 [9]: > 100 µM

O=[C]=[Ru-2]12(=[C]=O)([O][n+]3ccccc3[S]1)[O][n+]1ccccc1[S]2 [Complex 8, [Ru(L1)2(CO)2]]
IC50 [5]: > 100 µM
IC50 [6]: > 100 µM
IC50 [7]: > 100 µM
type of inhibition of hlGST (horse liver GST (hlGST) [8]): reversible and competitive
Ki (horse liver GST (hlGST) [8]): 0.85 µM
type of inhibition of hGST [9]: reversible and competitive
Ki [9]: 9.65 µM
IC50 [9]: 16.6 ± 1.4 µM

O=C(CC(=O)C(F)(F)F)c1ccccc1Br [Complex L2, 1-(2-bromophenyl)-4,4,4-trifluorobutane-1,3-dione, reference compound]
IC50 [5]: > 100 µM
IC50 [6]: > 100 µM
IC50 [7]: > 100 µM
IC50 (horse liver GST (hlGST) [8]): > 100 µM
IC50 [9]: > 100 µM

CCCCCCCCCCCCCCCCCC(=O)CC(=O)c1ccccc1 [Complex L3, 1-phenylicosane-1,3-dione, reference compound]
IC50 [5]: > 100 µM
IC50 [6]: > 100 µM
IC50 [7]: > 100 µM
IC50 (horse liver GST (hlGST) [8]): > 100 µM
IC50 [9]: > 100 µM

CN(C)C(=O)Oc1cccc([N+](C)(C)C)c1 [Neostigmine methylsulphate, reference compound]
IC50 [5]: 5.98 ± 1 µM
IC50 [7]: 92.7 ± 2.2 µM
IC50 (horse liver GST (hlGST) [8]): > 100 µM
IC50 [9]: > 100 µM

Cc1ccc(C(C)C)cc1.Cc1ccc(C(C)C)cc1.[Cl][Ru][Cl].[Cl][Ru][Cl] [Precursor 9, dichloro(p-cymene) ruthenium(II) dimer [Ru(p-cymene)Cl2]2]
IC50 [1]: > 100 µM
IC50 [10]: > 100 µM
IC50 [2]: 32.7 ± 4.3 µM
IC50 (horse liver GST (hlGST) [3]): > 100 µM
IC50 [4]: > 100 µM

[RuCym(L1)Br] [Complex 2]
type of inhibition of eeAChE [5]: reversible and competitive
type of inhibition of hrAChE [6]: reversible and competitive
type of inhibition of hsBChE [7]: reversible and competitive
type of inhibition of hlGST (horse liver GST (hlGST) [8]): reversible and competitive
Ki (horse liver GST (hlGST) [8]): 0.79 µM
type of inhibition of hGST [9]: reversible and competitive
Ki [9]: 4.08 µM
IC50 [9]: 4.64 ± 3.7 µM

[RuCym(L1)Cl] [Complex 1]
IC50 (horse liver GST (hlGST) [3]): 2.26 ± 0.5 µM
Ki (horse liver GST (hlGST) [3]; read-out: Enzyme Inhibition hlGST Ki): 10 µM
IC50 [4]: 45 ± 5.2 µM

[RuCym(L1)I] [Complex 3]
type of inhibition of eeAChE [5]: reversible and competitive
type of inhibition of hrAChE [6]: reversible and competitive
type of inhibition of hsBChE [7]: reversible and competitive
type of inhibition of hlGST (horse liver GST (hlGST) [8]): reversible and competitive
Ki (horse liver GST (hlGST) [8]): 1.6 µM
type of inhibition of hGST [9]: reversible and competitive
Ki [9]: 8.6 µM
IC50 [9]: 16 ± 3 µM

[RuCym(L1)pta]PF6 [Complex 6]
IC50 (horse liver GST (hlGST) [8]): > 100 µM

tricarbonyldichlororuthenium(II) dimer [Ru(CO)3Cl2]2 [Precursor 10, reference compound]
Ki (horse liver GST (hlGST) [8]): 2.93 µM
IC50 (horse liver GST (hlGST) [8]): 9.76 ± 0.4 µM
inhibition of hGST (in words) [9]: only weakly
IC50 [9]: 97.7 ± 1 µM
